Experimental data from PubChem BioAssay (NCI).
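GI50 is the concentration that inhibits growth by half. At the TGI there is no net growth.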

What was measured:
Assay in all cases: DTP human tumour cell line panel, 384-well format
SK-OV-3 ovarian = system: SK-OV-3 ovarian
MCF7 breast = system: MCF7 breast
UO-31 renal = system: UO-31 renal
SR leukemia = system: SR leukemia
HCC-2998 colon = system: HCC-2998 colon
SNB-75 CNS = system: SNB-75 CNS
SW-620 colon = system: SW-620 colon
UACC-257 melanoma = system: UACC-257 melanoma
SF-539 CNS = system: SF-539 CNS
NCI-H322M lung = system: NCI-H322M lung
HCT-15 colon = system: HCT-15 colon
PC-3 prostate = system: PC-3 prostate
M14 melanoma = system: M14 melanoma
HOP-62 NSCLC = system: HOP-62 NSCLC
K-562 leukemia = system: K-562 leukemia
OVCAR-5 ovarian = system: OVCAR-5 ovarian
HL-60(TB) leukemia = system: HL-60(TB) leukemia
CCRF-CEM leukemia = system: CCRF-CEM leukemia
BT-549 breast = system: BT-549 breast
UACC-62 melanoma = system: UACC-62 melanoma
NCI/ADR-RES ovarian = system: NCI/ADR-RES ovarian
A498 renal = system: A498 renal
HS 578T breast = system: HS 578T breast
MDA-MB-231 breast = system: MDA-MB-231 breast
OVCAR-8 ovarian = system: OVCAR-8 ovarian
NCI-H23 lung = system: NCI-H23 lung
MDA-MB-468 breast = system: MDA-MB-468 breast
SF-268 CNS = system: SF-268 CNS
COLO 205 colon = system: COLO 205 colon
RPMI-8226 leukemia = system: RPMI-8226 leukemia
SK-MEL-28 melanoma = system: SK-MEL-28 melanoma
SK-MEL-5 melanoma = system: SK-MEL-5 melanoma
NCI-H522 lung = system: NCI-H522 lung
EKVX NSCLC = system: EKVX NSCLC
MOLT-4 leukemia = system: MOLT-4 leukemia
786-0 renal = system: 786-0 renal
HT29 colon = system: HT29 colon
SF-295 CNS = system: SF-295 CNS
SN12C renal = system: SN12C renal
KM12 colon = system: KM12 colon
HOP-92 NSCLC = system: HOP-92 NSCLC
IGROV1 ovarian = system: IGROV1 ovarian
MDA-MB-435 melanoma = system: MDA-MB-435 melanoma
OVCAR-3 ovarian = system: OVCAR-3 ovarian
MALME-3M melanoma = system: MALME-3M melanoma
RXF 393 renal = system: RXF 393 renal
OVCAR-4 ovarian = system: OVCAR-4 ovarian
DU-145 prostate = system: DU-145 prostate
A549 NSCLC = system: A549 NSCLC

With CC[C@H](Nc1nc(NCc2cnc(C)cc2C)c2ncn(C(C)C)c2n1)[C@@H](C)O the GI50 (SK-OV-3 ovarian) was 452 nM, the TGI (SK-OV-3 ovarian) was 3390 nM and the GI50 (MCF7 breast) was 333 nM. The TGI (MCF7 breast) was 1330 nM, the GI50 (UO-31 renal) was 353 nM and the TGI (UO-31 renal) was > 100000 nM. The GI50 (SR leukemia) was 137 nM, the TGI (SR leukemia) was 269 nM and the GI50 (HCC-2998 colon) was 159 nM. It also gave a TGI (HCC-2998 colon) of 380 nM, a GI50 (SNB-75 CNS) of 183 nM and a TGI (SNB-75 CNS) of 424 nM. It also gave a GI50 (SW-620 colon) of 205 nM, a TGI (SW-620 colon) of 780 nM and a GI50 (UACC-257 melanoma) of 232 nM. For the same compound, the TGI (UACC-257 melanoma) was 445 nM, the GI50 (SF-539 CNS) was 185 nM and the TGI (SF-539 CNS) was 383 nM. It also gave a GI50 (NCI-H322M lung) of 226 nM, a TGI (NCI-H322M lung) of 501 nM and a GI50 (HCT-15 colon) of 296 nM. For the same compound, the TGI (HCT-15 colon) was 817 nM, the GI50 (PC-3 prostate) was 224 nM and the TGI (PC-3 prostate) was 594 nM. It also gave a GI50 (M14 melanoma) of 156 nM, a TGI (M14 melanoma) of 533 nM and a GI50 (HOP-62 NSCLC) of 225 nM. It also gave a TGI (HOP-62 NSCLC) of 638 nM, a GI50 (K-562 leukemia) of 286 nM and a TGI (K-562 leukemia) of 960 nM. The GI50 (OVCAR-5 ovarian) was 248 nM, the TGI (OVCAR-5 ovarian) was 691 nM and the GI50 (HL-60(TB) leukemia) was 148 nM. It also gave a TGI (HL-60(TB) leukemia) of 282 nM, a GI50 (CCRF-CEM leukemia) of 160 nM and a TGI (CCRF-CEM leukemia) of 307 nM. It also gave a GI50 (BT-549 breast) of 138 nM, a TGI (BT-549 breast) of 294 nM and a GI50 (UACC-62 melanoma) of 171 nM. It also gave a TGI (UACC-62 melanoma) of 397 nM, a GI50 (NCI/ADR-RES ovarian) of 1540 nM and a TGI (NCI/ADR-RES ovarian) of 4670 nM. The GI50 (A498 renal) was 240 nM, the TGI (A498 renal) was 648 nM and the GI50 (HS 578T breast) was 134 nM. The TGI (HS 578T breast) was 291 nM, the GI50 (MDA-MB-231 breast) was 196 nM and the TGI (MDA-MB-231 breast) was 767 nM. For the same compound, the GI50 (OVCAR-8 ovarian) was 225 nM, the TGI (OVCAR-8 ovarian) was 551 nM and the GI50 (NCI-H23 lung) was 173 nM. It also gave a TGI (NCI-H23 lung) of 343 nM, a GI50 (MDA-MB-468 breast) of 182 nM and a TGI (MDA-MB-468 breast) of 334 nM. It also gave a GI50 (SF-268 CNS) of 166 nM, a TGI (SF-268 CNS) of 386 nM and a GI50 (COLO 205 colon) of 206 nM. The TGI (COLO 205 colon) was 508 nM, the GI50 (RPMI-8226 leukemia) was 149 nM and the TGI (RPMI-8226 leukemia) was 284 nM. For the same compound, the GI50 (SK-MEL-28 melanoma) was 163 nM, the TGI (SK-MEL-28 melanoma) was 335 nM and the GI50 (SK-MEL-5 melanoma) was 139 nM. The TGI (SK-MEL-5 melanoma) was 291 nM, the GI50 (NCI-H522 lung) was 180 nM and the TGI (NCI-H522 lung) was 341 nM. It also gave a GI50 (EKVX NSCLC) of 267 nM, a TGI (EKVX NSCLC) of 757 nM and a GI50 (MOLT-4 leukemia) of 184 nM. For the same compound, the TGI (MOLT-4 leukemia) was 334 nM, the GI50 ([…]-0 renal) was 227 nM and the TGI (786-0 renal) was 657 nM. It also gave a GI50 (HT29 colon) of 198 nM, a TGI (HT29 colon) of 472 nM and a GI50 (SF-295 CNS) of 224 nM. It also gave a TGI (SF-295 CNS) of 522 nM, a GI50 (SN12C renal) of 217 nM and a TGI (SN12C renal) of 487 nM. It also gave a GI50 (KM12 colon) of 239 nM, a TGI (KM12 colon) of 737 nM and a GI50 (HOP-92 NSCLC) of 230 nM. For the same compound, the TGI (HOP-92 NSCLC) was 569 nM, the GI50 (IGROV1 ovarian) was 277 nM and the TGI (IGROV1 ovarian) was 797 nM. It also gave a GI50 (MDA-MB-435 melanoma) of 245 nM, a TGI (MDA-MB-435 melanoma) of 693 nM and a GI50 (OVCAR-3 ovarian) of 232 nM. For the same compound, the TGI (OVCAR-3 ovarian) was 516 nM, the GI50 (MALME-3M melanoma) was 298 nM and the TGI (MALME-3M melanoma) was 967 nM. It also gave a GI50 (RXF 393 renal) of 175 nM, a TGI (RXF 393 renal) of 349 nM and a GI50 (OVCAR-4 ovarian) of 316 nM. The TGI (OVCAR-4 ovarian) was 1290 nM, the GI50 (DU-145 prostate) was 302 nM and the TGI (DU-145 prostate) was 1260 nM. For the same compound, the GI50 (A549 NSCLC) was 315 nM and the TGI (A549 NSCLC) was > 100000 nM.
